One substance from US7589080B2, “β-cyclodextrin compositions, and use to prevent transmission of sexually transmitted diseases” (priority 2000, dated 2009) can be followed below.

Common to all, as to type: cell-based
In one experiment the test system is CXCR4. Description: Flow cytometry of CXCR4 surface expression. The procedure: Flow cytometry was performed as previously described (Orentas and Hildreth, supra, 1993). Briefly, 2×10^5 2-OH-βCD treated or untreated cells in 100 μl PBS containing 5% normal goat serum (NGS) were added to 100 μl of MAb (1-5 μg) and incubated 30 min on ice. In comparative experiments we prefixed the cells with 2% paraformaldehyde in PBS immediately after 2-OH-βCD treatment. Cells were washed with PBS, resuspended in 100 μl of PBS, 5% NGS containing 2 Tg of FITC conjugated-goat anti-mouse IgG (FITC-GAM) and incubated 1 h on ice. Cells were then washed with PBS and fixed with 2% paraformaldehyde followed by analysis on an EPICS Profile II flow cytometer.
Cholesterol depletion also promoted CXCR4 down-modulation by MAb-induced internalization. A possible explanation for the inhibition of syncytium formation by cholesterol depletion as described above is that CD4, CRs, or both are lost from the cell surface, for example, by extrusion from the membrane in vesicles after loss of cholesterol, or they could be internalized. To explore these possibilities, βCD treated cells were examined for expression of HIV receptors by flow cytometry. […] In contrast, cell surface expression of CXCR4 was reduced by 50% or more in all of the cells after 2-OH-βCD treatment (Table 1).
In order to determine whether the loss of CXCR4 expression was due to MAb-induced internalization, cells were fixed with 2% paraformaldehyde in PBS immediately after 2-OH-βCD treatment and before staining with MAbs for flow cytometry.
(Flow cytometry measures light scatter and fluorescence of single cells or particles in a stream.)

For experiment [1], the system named is total cellular cholesterol. The experiment can be described thus: Cellular cholesterol measurement (cholesterol oxidase fluorimetric assay). Conditions: 10 to 20 mM for 1 hr at 37° C, then washing. How it is done: Cellular cholesterol was measured with a sensitive cholesterol oxidase-based fluorimetric assay (Amplex Red Cholesterol Kit) from Molecular Probes (Eugene Oreg.). Cholesterol content of cells was normalized to total cellular protein.
The role of lipid rafts in the HIV-1 fusion process was examined by treating CD4+HIV-susceptible target cells with 2-OH-βCD to deplete membrane cholesterol and disperse lipid rafts.

The next experiment deals with HIV-infected H9 cells. Description: Syncytium assay with HIV-1 infected cells. As to conditions: for Syncytia (/HPF): with HIV-infected H9 cells. How it is done:
Syncytium assays were carried out essentially as previously described (Hildreth and Orentas, supra, 1989). Briefly, cell lines or PHA blasts were treated with 20 mM 2-OH-βCD in RPMI 1640 or medium alone for 1 hr at 37° C. before washing twice with PBS. The treated cells were then mixed with HIV-1 infected cells, each at density of 2×10^6/ml, in cRPMI and incubated at 37° C. Syncytia were scored and photographed 3 to 6 hr after mixing. For free-virus mediated syncytium assays (“fusion from without”), HIV-1RF from infected PM1 culture supernatants were clarified by 0.45 Tm filtration (p24 concentration greater than 500 ng/ml). 2-OH-βCD-treated and non-treated cell lines were added to the virus preparations and incubated at 37° C. for 3 hr before counting syncytia.
CD4+SupTl T cells formed numerous large syncytia within 3 hr after the addition of HIV-1MN-infected H9 cells. […] No syncytia were apparent in this culture for more than 15 hr, which can reflect the recovery time for cholesterol in the βCD treated T cells. 2-OH-βCD was washed out after the 1 hr treatment and was not present during the co-cultivation step. As such, the effects are not a result of a steric blockade by 2-OH-βCD, which can bind to cells.
The effect of βCD treatment on HIV-induced fusion of several other cell lines also was examined. Four CD4+, CXCR4+cell lines, SupT1, H9, PM1, and MT2, were treated with 2-OH-βCD and tested for syncytium formation with HIV-1-infected cells.

In experiment [2] the test system is HIV-1 primary strain 97.099, M-tropic (R5). Description: Primary virus infection assay, isolate 97.099. As to conditions: PHA blasts treated with 10 mM; p24 after 6 days. The procedure:
Peripheral blood mononuclear cells (PBMCS) were isolated by Ficoll-Hypaque centrifugation from buffy coats obtained from the Johns Hopkins Hemapheresis Center. Cells were stimulated for 3 days with 3 Tg/ml PHA, washed with iRPMI, and treated with 10 mM 2-OH-βCD in cRPMI for 1 hr. Cells were then washed twice with iRPMI and resuspended in cRPMI (1×10^6/ml) supplemented with 50 U/ml IL-2 and containing primary HIV-1 strains at 20 ng/ml p24. Cells were incubated with virus for 24 hr at 37° C. before washing twice with iRPMI. Cells were then resuspended in cRPMI supplemented with 50 U/ml IL-2 and cultured for 6 days at 37° C. Supernatants were collected and p24 was quantitated by standard p24 ELISA.
βCD treatment blocks HIV-1 virus infection. HIV-1 can spread in cell cultures without necessarily exerting cytopathic effects. […] To test the effects of cholesterol depletion on HIV-1 infection of primary T cells by free virus, PHA blasts were treated with 10 mM 2-OH-βCD or medium alone, then were exposed to HIV-1 for 2 hr before washing to remove input virus. Viability and growth of the PHA blasts was not affected by treatment with the βCD under the conditions used. P24 release was measured after an addition 6 days in culture. Two primary strains of HIV-1, 97.099 and 97.534, M-tropic (R5) and dual-tropic (X4R5), respectively, were tested.

In the case of “2-hydroxypropyl-β-cyclodextrin [2-OH-βCD]”, the “CXCR4 (MCF)” value turned out to be 55 MCF in the experiment with CXCR4 (H9, 20 mM, fixed with 2% paraformaldehyde immediately after treatment); 6.7 MCF in the experiment on CXCR4 (H9 cells, 20 mM, not fixed before staining); 16.7 MCF with CXCR4 (MT2 cells, 20 mM, not fixed before staining); 64 MCF with CXCR4 (PM1, 20 mM, fixed with 2% paraformaldehyde immediately after treatment); 3.1 MCF in the experiment on CXCR4 (PM1 cells, 20 mM, not fixed before staining); 91 MCF in the experiment on CXCR4 (SupT1, 20 mM, fixed with 2% paraformaldehyde immediately after treatment). The “CXCR4 (MCF)” value in the experiment on CXCR4 (SupT1 cells, 20 mM, not fixed before staining) was found to be 15.0 MCF. The “Reduction of cell surface expression of CXCR4” value with CXCR4 (all of the cells, not fixed before staining) is ≥ 50%. Moreover, the “Anti-CXCR4 MAb staining compared to control cells” value in the experiment with CXCR4 (cells fixed and permeabilized after the MAb binding step) is recorded as “no significant reduction”. In the experiment with CXCR4 (cells fixed immediately after treatment, before MAb staining), the “CXCR4 expression on the cell surface” value was “remained unchanged”. The “Depletion of total cellular cholesterol” value in experiment [1] is “greater than 70%”. Also, the “Syncytium formation of SupT1 cells with HIV-1MN-infected H9 cells” value with HIV-infected H9 cells (1 hr treatment, washed out before co-cultivation) is “completely inhibited”. For the same substance, the “Syncytia (/HPF)” value in the experiment with HIV-infected H9 cells (H9 cells treated with 20 mM), with HIV-infected H9 cells (MT2 cells treated with 20 mM), in the experiment with HIV-infected H9 cells (PM1 cells treated with 20 mM) and with HIV-infected H9 cells (SupT1 cells treated with 20 mM) was 0 /HPF throughout. Besides, in the experiment on HIV-infected H9 cells (SupT1, H9, PM1 and MT2 cell lines, in each case), the “Syncytium formation with HIV-1-infected cells” value is “completely blocked”. Moreover, the “Time without apparent syncytia” value in the experiment with HIV-infected H9 cells (treated SupT1 cells with HIV-1MN-infected H9 cells) is given as “more than 15 hr”. For the same substance, in experiment [2], the “Infection of PHA blasts by HIV isolate 97.099 (p24 release)” value is recorded as “completely inhibited”.
